Results from patent publication US9988358B2, “Phenazinium mediators” (Roche Diagnostics Operations, Inc., priority 2014, dated 2018).

Key:
Format in all cases: physicochemical
[1] = Reactivity towards ascorbate, decrease of absorption over time; details: 0.23 mM compound, room temperature, 0.1 M triethylammonium acetate buffer pH 7, 5 fold molar excess of ascorbate
Description: 1-Acetylamino-5-methyl-phenazinium trifluormethanesulfonate, 1-Acetylamino-5-ethyl-phenazinium trifluoroacetate, and 1-(3-Carboxy-propionylamino)-5-ethyl-phenazinium (formula III) were compared regarding their reactivity towards ascorbate. To this end, each 0.23 mM of the respective compound was incubated at room temperature in 0.1 M triethylammonium acetate buffer (pH 7) in the presence of a 5 fold molar excess of ascorbate. Decrease of absorption at 517 nm (1-(3-Carboxy-propionylamino)-5-ethyl-phenazinium) or 512 nm (other two compounds) was recorded over time. Whereas with 1-Acetylamino-5-methyl-phenazinium, the absorption decreased by 12% per minute, the decrease slowed to 7% per minute for 1-Acetylamino-5-ethyl-phenazinium, and to less than 5% for 1-(3-Carboxy-propionylamino)-5-ethyl-phenazinium.

[2] = Pot life of mediator formulations; details: 48 h vs t=0 in reaction mixture
Description: FIG. 3.) Pot life of mediator formulations. Mediators 1-(3-Carboxy-propionylamino)-5-ethyl-phenazinium and 1-(3-Carboxypropoxy)-5-ethylphenazinium were compared in a pot life experiment. Pot life of 1-(3-Carboxy-propionylamino)-5-ethyl-phenazinium (A: 0 h, B: 48 h) and 1-(3-Carboxypropoxy)-5-ethylphenazinium (C:=0 h, D: 48 h) are shown; Linear: linear regression.
Mediators 1-(3-Carboxy-propionylamino)-5-ethyl-phenazinium and 1-(3-Carboxypropoxy)-5-ethylphenazinium were compared in a pot life experiment. Performance of mediators was measured immediately after preparing the reaction mixture (t=0) and after 48 h. […] Therefore, both mediators seem to be very stable in a formulation.

[3] = Formal redox potential by cyclic voltammetry in a test strip
Description: FIG. 1.) cyclic voltammograms of 1-(3-Carboxy-propionylamino)-5-ethyl-phenazinium (compound of formula (III)). A: Buffer pH 7.0 (blank current), B: 2 mM 1-(3-Carboxy-propionylamino)-5-ethyl-phenazinium in buffer, C: 2 mM 1-(3-Carboxy-propionylamino)-5-ethyl-phenazinium+1.2 mM ascorbic acid in buffer, D: 1.2 mM ascorbic acid in buffer.
The formal redox potential of a typical 1-Acylated amino phenazinium ethosulfate, 1-(3-Carboxy-propionylamino)-5-ethyl-phenazinium (compound of formula (III)), was measured vs. Ag/AgCl at a gold working electrode in a test strip. The cyclic voltammograms show, that a relatively low potential of −100 mV vs. Ag/AgCl is sufficient in order to oxidize the substance.
The quasi reversible oxidation and reduction of the mediator 1-(3-Carboxy-propionylamino)-5-ethyl-phenazinium occurs in a potential range between 0 mV and −500 mV vs. Ag/AgCl via two electron transfer. Ascorbic acid cannot be oxidized in this potential window and the current is similar to the blank current of the pure buffer solution.

decrease of absorption at 517 nm [1]	change in current after pot life [2]	redox potential after adding ascorbic acid ([3]; 2 mM mediator + 1.2 mM ascorbic acid in buffer pH 7.0, cyclic voltammetry)	formal redox potential ([3]; gold working electrode in a test strip, physiological conditions (0.9% NaCl), cyclic voltammetry)	SMILES	decrease of absorption at 512 nm [1]
less than 5%	no significant decrease in current	−231 mV vs. Ag/AgCl	−236 mV vs. Ag/AgCl	CC[n+]1c2ccccc2nc2c(NC(=O)CCC(=O)O)cccc21 [1-(3-Carboxy-propionylamino)-5-ethyl-phenazinium]	–
–	–	–	–	CC[n+]1c2ccccc2nc2c(NC(C)=O)cccc21.O=C([O-])C(F)(F)F [1-Acetylamino-5-ethyl-phenazinium, 1-Acetylamino-5-ethyl-phenazinium trifluoroacetate]	7 % per minute
–	no significant decrease in current	–	–	CC[n+]1c2ccccc2nc2c(OCCCC(=O)O)cccc21 [1-(3-Carboxypropoxy)-5-ethylphenazinium, reference compound]	–
–	–	–	–	CC(=O)Nc1cccc2c1nc1ccccc1[n+]2C.O=S(=O)([O-])C(F)(F)F [1-Acetylamino-5-methyl-phenazinium, 1-Acetylamino-5-methyl-phenazinium trifluormethanesulfonate]	12 % per minute
